From the NIST ThermoML archive (doi:10.1016/j.jct.2012.01.019) come the findings set out here.

This data set can be described thus: activity coefficient (dimensionless); of the first substance listed, at infinite dilution; xn = mol fraction of the nth substance listed. The following applies: 101 kPa, Liquid, Chromatography, x1 = 0.

± gives the expanded uncertainty stated by the source.

As to `CCC(=O)CC` [pentan-3-one] + COCC[N+]1(C)CCCCC1.O=S(=O)([N-]S(=O)(=O)C(F)(F)F)C(F)(F)F, the activity coefficient runs as follows: (318.15 K) 0.785 ± 0.051; (328.15 K) 0.801 ± 0.052; (338.15 K) 0.821 ± 0.053; (348.15 K) 0.838 ± 0.054; (358.15 K) 0.852 ± 0.055; (368.15 K) 0.869 ± 0.056.
Consider `CCCCC` [pentane] + COCC[N+]1(C)CCCCC1.O=S(=O)([N-]S(=O)(=O)C(F)(F)F)C(F)(F)F, for which the activity coefficient (318.15 K) was determined as 11.8 ± 0.5; the activity coefficient (328.15 K) worked out at 11.3 ± 0.5; the activity coefficient (338.15 K) came to 10.8 ± 0.5; the activity coefficient (348.15 K) was determined as 10.3 ± 0.5; the activity coefficient (358.15 K) was found to be 9.86 ± 0.45; the activity coefficient (368.15 K) amounted to 9.48 ± 0.44.
With `CCCO` [propan-1-ol] + COCC[N+]1(C)CCCCC1.O=S(=O)([N-]S(=O)(=O)C(F)(F)F)C(F)(F)F, the activity coefficient is, setting by setting: (318.15 K) 2.13 ± 0.14; (328.15 K) 1.93 ± 0.13; (338.15 K) 1.77 ± 0.12; (348.15 K) 1.61 ± 0.11; (358.15 K) 1.5 ± 0.1; (368.15 K) 1.4 ± 0.09.
`CC(C)O` [propan-2-ol] + COCC[N+]1(C)CCCCC1.O=S(=O)([N-]S(=O)(=O)C(F)(F)F)C(F)(F)F: the activity coefficient came to 1.92 ± 0.13 (318.15 K); 1.76 ± 0.12 (328.15 K); 1.61 ± 0.11 (338.15 K); 1.47 ± 0.1 (348.15 K); 1.37 ± 0.09 (358.15 K); 1.28 ± 0.08 (368.15 K).
In the case of `c1ccncc1` [pyridine] + COCC[N+]1(C)CCCCC1.O=S(=O)([N-]S(=O)(=O)C(F)(F)F)C(F)(F)F, the activity coefficient runs as follows: (318.15 K) 0.548 ± 0.04; (328.15 K) 0.555 ± 0.04; (338.15 K) 0.562 ± 0.04; (348.15 K) 0.57 ± 0.041; (358.15 K) 0.577 ± 0.041; (368.15 K) 0.583 ± 0.041.
For the compound `C=Cc1ccccc1` [styrene] + COCC[N+]1(C)CCCCC1.O=S(=O)([N-]S(=O)(=O)C(F)(F)F)C(F)(F)F, the activity coefficient is 1.08 ± 0.07 (318.15 K); 1.1 ± 0.07 (328.15 K); 1.13 ± 0.07 (338.15 K); 1.14 ± 0.07 (348.15 K); 1.16 ± 0.07 (358.15 K); 1.19 ± 0.08 (368.15 K).
On to `C1CCOC1` [tetrahydrofuran] + COCC[N+]1(C)CCCCC1.O=S(=O)([N-]S(=O)(=O)C(F)(F)F)C(F)(F)F, for which the activity coefficient reads like this: (318.15 K) 0.76 ± 0.05; (328.15 K) 0.773 ± 0.051; (338.15 K) 0.787 ± 0.051; (348.15 K) 0.799 ± 0.052; (358.15 K) 0.809 ± 0.052; (368.15 K) 0.821 ± 0.053.
`c1ccsc1` [thiophene] + COCC[N+]1(C)CCCCC1.O=S(=O)([N-]S(=O)(=O)C(F)(F)F)C(F)(F)F: the activity coefficient runs as follows: (318.15 K) 0.787 ± 0.051; (328.15 K) 0.798 ± 0.052; (338.15 K) 0.808 ± 0.052; (348.15 K) 0.819 ± 0.053; (358.15 K) 0.829 ± 0.053; (368.15 K) 0.839 ± 0.054.
Regarding `Cc1ccccc1` [toluene] + COCC[N+]1(C)CCCCC1.O=S(=O)([N-]S(=O)(=O)C(F)(F)F)C(F)(F)F, the activity coefficient was found to be 1.29 ± 0.08 (318.15 K); 1.3 ± 0.08 (328.15 K); 1.32 ± 0.09 (338.15 K); 1.33 ± 0.09 (348.15 K); 1.34 ± 0.09 (358.15 K); 1.35 ± 0.09 (368.15 K).
Turning to `O` [water] + COCC[N+]1(C)CCCCC1.O=S(=O)([N-]S(=O)(=O)C(F)(F)F)C(F)(F)F, the activity coefficient is, setting by setting: (318.15 K) 3.35 ± 0.23; (328.15 K) 2.93 ± 0.2; (338.15 K) 2.62 ± 0.18; (348.15 K) 2.33 ± 0.16; (358.15 K) 2.07 ± 0.14; (368.15 K) 1.87 ± 0.13.
